These results are taken from PubChem BioAssay (NCI).

The structures appear in SMILES notation.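 Following 48 hours of exposure in 96-well plates, responses at five concentrations were used to interpolate endpoints linearly. TGI denotes the concentration required for complete inhibition of growth.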

What all share (experiment): NCI-60 cell line screen, 48 h
Test [1] concerns HL-60(TB) leukemia.
For test [2], the system named is SNB-75 CNS.
Test [3] relates to SK-MEL-5 melanoma.
Test [4] relates to ACHN renal.
Test [5] deals with UO-31 renal.
For test [6], the system named is EKVX NSCLC.
For test [7], the system named is 786-0 renal.
Test [8] deals with SR leukemia.
Test [9] relates to HOP-92 NSCLC.
The subject of test [10] is BT-549 breast.
Test [11] deals with PC-3 prostate.
The subject of test [12] is OVCAR-5 ovarian.
For test [13], the system named is MDA-N.

As for `C/C(=N/O)c1sc(-c2nc(C)c(/C(C)=N\O)s2)nc1C`, the TGI in test [1], in test [2], in [3], in test [4], in [5] and in [6] was more than 100 µM throughout. For the same molecule, the TGI in test [7], in [8] and in [9] was more than 100 µM each time.

As to `CC1=CC(=O)N(n2c(-c3ccccc3)n[nH]c2=O)C1=O`, the TGI in [1], in [2], in [10], in test [3], in test [11] and in test [4] was more than 100 µM each time. Also, the TGI in [12], in test [5], in test [6] and in [7] was more than 100 µM in each case.

On to `Nc1cc(Cl)ccc1SSc1ccc(Cl)cc1N`, for which the TGI in test [1] is more than 100 µM; in test [2], 37.6 µM; in test [10], 35.1 µM; in test [3] it was 27 µM; in test [11] it was 48.4 µM; in test [4] it was 21.3 µM. In addition, the TGI in [12] is 30.3 µM; in [5], 22.1 µM; in test [6], 24.5 µM; in [7], 25.9 µM; in [8], more than 100 µM; in [9], more than 100 µM.

On to `COc1ccc(/C=C/C(=O)c2sc(-c3cccnc3)nc2C)cc1`, for which the TGI in test [1] was 48.1 µM; in test [2] it was more than 100 µM; in [3], more than 100 µM; in test [12], more than 100 µM; in test [5], more than 100 µM; in test [6], more than 100 µM. Moreover, the TGI in test [7] and in [9] was more than 100 µM in each case.

Turning to `CCN(CC)Cc1cc(Nc2ccnc3ccc4nn(C)nc4c23)ccc1O`, the TGI in test [1] is more than 100 µM; in [2] it was 26.1 µM; in test [3], 29.9 µM; in test [4], 68.3 µM; in test [12], 35.7 µM; in test [5], 54 µM. The TGI was 49.5 µM in test [7] and more than 100 µM in [8].

In the case of `CN(C)C(=NC#N)N(Cc1ccccc1)Cc1ccccc1`, the TGI in test [1], in [2], in test [3], in test [4], in test [12] and in [5] was more than 100 µM each time. In addition, the TGI in [6], in test [7] and in [9] was more than 100 µM throughout.

On to `CC(C)OP(=O)(OC(C)C)C(=NCCN=C(NNc1ccccc1[N+](=O)[O-])P(=O)(OC(C)C)OC(C)C)NNc1ccccc1[N+](=O)[O-]`, for which the TGI in test [1] is 74.5 µM; in test [2], more than 100 µM; in test [4], more than 100 µM; in test [12] it was 72.8 µM; in test [5], 71.5 µM; in test [6], more than 100 µM. In addition, the TGI in [7] and in [9] was more than 100 µM each time.

As for `O=C(Cc1nc2ccc([N+](=O)[O-])cc2[nH]c1=O)C(=O)Nc1ccccc1[N+](=O)[O-]`, the TGI in test [1], in test [2], in test [3], in test [4], in test [12] and in test [5] was more than 100 µM throughout. Also, the TGI in [6], in test [7] and in test [9] was more than 100 µM in each case.

As to `Cc1cc(S(=O)(=O)NC(=NCCc2ccccc2)NN)c(S)cc1Cl`, the TGI was more than 100 µM in [1]; 69.7 µM in test [2]; 66.2 µM in test [10]; 37.9 µM in [3]; more than 100 µM in test [11]; 36.8 µM in test [12]. For the same molecule, the TGI was 56.9 µM in [5], more than 100 µM in test [6], more than 100 µM in test [7] and more than 100 µM in test [8].

As to `CC(C)C(Sc1nc(-c2ccccc2)c(-c2ccccc2)[nH]1)c1n[nH]c(=S)n1-c1ccccc1` (stereo unspecified), the TGI is 47.1 µM in test [1]; more than 100 µM in [2]; 31.5 µM in test [3]; 79.5 µM in [4]; 95 µM in test [12]; 57.2 µM in test [5]. Also, the TGI in test [6] is 65.4 µM; in test [7], more than 100 µM; in [8], 92.3 µM; in test [9] it was 72 µM.

Consider `NC(CCCCNCc1ccccc1)C(=O)O` (stereo unspecified), for which the TGI in test [1], in [2], in test [3], in [4], in test [12] and in test [5] was more than 100 µM throughout. For the same molecule, the TGI in test [6], in test [7] and in test [9] was more than 100 µM each time.

Turning to `COc1ccccc1NC(=O)CC(=O)N1N=C(c2ccccc2)C(N=Nc2ccc(Cl)cc2)C1=O` (stereo unspecified), the TGI was more than 100 µM in test [1]; 55 µM in test [2]; 42 µM in [3]; 47.3 µM in test [4]; more than 100 µM in test [12]; 52.4 µM in [5]. Moreover, the TGI is more than 100 µM in test [6], 37 µM in test [7] and more than 100 µM in test [8].

In the case of `COc1cc(CNc2cnc3ccc(N)cc3n2)cc(OC)c1OC`, the TGI in test [1], in test [2], in test [3], in test [4], in test [12] and in test [5] was more than 100 µM each time. Moreover, the TGI in test [6], in test [7] and in [9] was more than 100 µM each time.

In the case of `O=[N+]([O-])C(/C=C(\Cl)[N+](=O)[O-])=C(N1CCCCC1)N1CCCCC1`, the TGI is 41.7 µM in test [1]; 46.5 µM in test [3]; more than 100 µM in test [11]; 41 µM in test [13]; more than 100 µM in test [4]; more than 100 µM in test [12]. Moreover, the TGI in [5] was 75.7 µM; in test [6], more than 100 µM; in [7], more than 100 µM; in test [8], 51.1 µM; in test [9] it was more than 100 µM.
